{
  "source": "patent US20110129868A1",
  "about": "“CELL CAPABLE OF REPLICATING NOVEL HCV REPLICON, CELL CAPABLE OF REPLICATING FULL-LENGTH HCV RNA, AND USE OF THOSE CELLS” (priority 2008, published 2011)",
  "key": {"[1]": {"test_system": "full-length HCV RNA replication in ORL11 cells", "test": "microbe, parasite or virus in culture", "format": "cell-based, HCV-O strain (genotype 1b)", "conditions": "for measured luciferase activity value: 24 hours after the addition, 750,000 without IFN-α", "description": "(§1) Renilla luciferase was quantified by collecting cells using a Renilla Luciferase Assay System (Promega) according to the manufacturer's experiment protocol.\n(§2) Luciferase activity of each cell line was then measured at hour 24, 48, and 72. […] SD values were calculated based on the results from three samples at each point. […]"}, "[2]": {"test_system": "full-length HCV RNA replication in ORL8 cells", "test": "microbe, parasite or virus in culture", "format": "cell-based, HCV-O strain (genotype 1b)", "conditions": "ORL8 cells; for measured luciferase activity value: 24 hours after the addition, 380,000 without IFN-α", "description": "as §1, §2"}, "[3]": {"test_system": "full-length HCV RNA replication in OL8, OL11, and OL14 cells", "conditions": "IFN-α 50, 100, or 200 IU/ml every 4 days; 25 days; as in O cells", "description": "The colonies that appeared as G418 resistant cells were stained with CBB solution (FIG. 7). […] No G418-resistant cell colonies were obtained in OL14 cells."}, "[4]": {"test_system": "full-length HCV RNA replication in KAH5RL8 cells", "test": "luciferase activity and HCV RNA level in KAH5RL8 cells", "format": "cell-based, HCV strain KAH5 (genotype 1b)", "conditions": "24 hours after the addition of IFN-α (1, 10, 100 IU/ml)", "description": "(§3) Total RNA was extracted from the HCV RNA replicating cells using an RNeasy Mini Kit (Qiagen) according to the manufacturer's experiment protocol. First, using 2 μg of RNA as a template, reverse transcription (RT) reaction was performed with SuperScript™ II reverse transcriptase (Invitrogen) and the primer 319R below according to the manufacturer's experiment protocol. HCV RNA was quantified by real-time LightCycler PCR, using the resulting cDNA as a template. Real-Time LightCycler PCR was performed based on the method previously reported by the present inventors (reference: Acta Med. Okayama 56, 107-110, 2002), using the primers 104 and 197R below.\nas §1\n(§4) The 1B-4RL8 and KAH5RL8 cells were examined with regard to a possible correlation between luciferase activity and HCV RNA level (FIG. 49). The graphs on the left represent the measured luciferase activities 24 hours after the addition of IFN-α (0, 1, 10, 100 IU/ml) to the 1B-4RL8 and KAH5RL8 cells (each cultured for 2 days after inoculating 2×10^4 cells in a 24-well plate). Measurements were made in at least 3 wells at each point. A one hundred percent measurement value of 300,000 was obtained for the 1B-4RL8 and KAH5RL8 cells. […]"}, "OR6 cells": {"test_system": "OR6 cells", "test": "cell count by trypan blue staining, OR6 cells", "format": "cell-based, human", "conditions": "drug at the concentration corresponding to the EC50 value"}, "ORL8 cells": {"test_system": "ORL8 cells", "test": "cell count by trypan blue staining, ORL8 cells", "format": "cell-based, human", "conditions": "drug at the concentration corresponding to the EC50 value"}, "[5]": {"test_system": "HCV replicon RNA replication in sORL8 (pool) cells", "test": "luciferase reporter assay using sORL8 (pool) cells", "format": "cell-based, HCV-O strain (genotype 1b)", "conditions": "luciferase activity after 72 hours", "description": "as §1\n(§5) In the ORN/3-5B/QR, KE, SR (replicon RNA)-introduced OL8c and OL11c cells, G418-resistant cells filled the dish in 2 weeks (FIG. 9). Because the whole cells were estimated to be several tens of thousands of colonies, the G418-resistant cells were mixed without cloning, and used as reporter gene-carrying replicon-replicating cells (sORL8 (pool) cells and sORL11 (pool) cells). These cells had luciferase activities measuring 8×10^5 and 15×10^5, respectively, in terms of actual measurement values per 2×10^5 cells (Promega assay kit). […] Note that the doubling time of the cells using a common subculture medium (in the presence of G418) was calculated as 53 hours and 40 hours. It was also confirmed that the replicon RNA in these cells were not incorporated into the host DNA (the results are not presented).\n(§6) The same experiments were conducted using sORL8 (pool) cells and sORL11 (pool) cells."}, "ORL11 cells": {"test_system": "ORL11 cells", "test": "cell count by trypan blue staining, ORL11 cells", "format": "cell-based, human"}, "[6]": {"test_system": "full-length HCV RNA replication in OR6 cells", "test": "microbe, parasite or virus in culture", "format": "cell-based, HCV-O strain (genotype 1b)", "conditions": "OR6 cells", "description": "as §1\nAn OR6-cell assay system was used as a control."}, "[7]": {"test_system": "full-length HCV RNA replication in 1B-4RL8 cells", "test": "luciferase activity and HCV RNA level in 1B-4RL8 cells", "format": "cell-based, HCV strain 1B-4 (genotype 1b)", "conditions": "24 hours after the addition of IFN-α (1, 10, 100 IU/ml)", "description": "as §3, §1, §4"}, "[8]": {"test_system": "HCV replicon RNA replication in sORL11 (pool) cells", "test": "luciferase reporter assay using sORL11 (pool) cells", "format": "cell-based, HCV-O strain (genotype 1b)", "conditions": "luciferase activity after 72 hours", "description": "as §1, §5, §6"}, "[9]": {"conditions": "24 hours after the addition of IFN-α (1, 10, 100 IU/ml)"}, "[10]": {"conditions": "drug concentrations based on the EC50 values"}},
  "data": [
    {"substance": "IFN-α", "values": [
      {"measurement": "measured luciferase activity value", "setting": "[1]; 1 IU/ml IFN-α", "value": "300,000"},
      {"measurement": "measured luciferase activity value", "setting": "[1]; 10 IU/ml IFN-α", "value": "76,000"},
      {"measurement": "measured luciferase activity value", "setting": "[1]; 100 IU/ml IFN-α", "value": "27,000"},
      {"measurement": "luciferase activity and HCV RNA level", "setting": "[1]; [9]", "value": "decreased in a manner that depended on IFN-α concentration"},
      {"measurement": "luciferase activity after treatment (single agent or combined use)", "setting": "[1]; IFN-α at 0.25 IU/ml, ribavirin at 12.5 W", "value": 48, "unit": "%"},
      {"measurement": "luciferase activity after treatment (single agent or combined use)", "setting": "[1]; [10]", "value": 41, "unit": "%"},
      {"measurement": "luciferase activity and HCV RNA level", "setting": "[2]; [9]", "value": "decreased in a manner that depended on IFN-α concentration"},
      {"measurement": "luciferase activity after treatment (single agent or combined use)", "setting": "[2]; IFN-α at 0.25 IU/ml, ribavirin", "value": 26, "unit": "%"},
      {"measurement": "measured luciferase activity value", "setting": "[2]; addition of 1 IU/ml IFN-α", "value": "113,000"},
      {"measurement": "measured luciferase activity value", "setting": "[2]; addition of 10 IU/ml IFN-α", "value": "36,000"},
      {"measurement": "measured luciferase activity value", "setting": "[2]; addition of 100 IU/ml IFN-α", "value": "19,000"},
      {"measurement": "luciferase activity after treatment (single agent or combined use)", "setting": "[2]; [10]", "value": 50, "unit": "%"},
      {"measurement": "sensitivity of full-length HCV RNA replication (G418-resistant colonies)", "setting": "[3]", "value": "highly sensitive"},
      {"measurement": "luciferase activity and HCV RNA level", "setting": "[4]", "value": "decreased in a manner that depended on IFN-α concentration"},
      {"measurement": "cell count over the control cells", "setting": "OR6 cells", "value": "≥ 95", "unit": "%"},
      {"measurement": "cell count over the control cells", "setting": "ORL8 cells", "value": "≥ 95", "unit": "%"},
      {"measurement": "EC50", "setting": "[5]", "value": 0.14, "unit": "IU/ml"},
      {"measurement": "cell count over the control cells", "setting": "ORL11 cells", "value": "≥ 95", "unit": "%"},
      {"measurement": "luciferase activity after treatment (single agent or combined use)", "setting": "[6]; IFN-α at 0.25 IU/ml, ribavirin", "value": 75, "unit": "%"},
      {"measurement": "luciferase activity after treatment (single agent or combined use)", "setting": "[6]; [10]", "value": 67, "unit": "%"},
      {"measurement": "EC50", "setting": "[6]; luciferase activity after 72 hours", "value": 0.40, "unit": "IU/ml"},
      {"measurement": "luciferase activity and HCV RNA level", "setting": "[7]", "value": "decreased in a manner that depended on IFN-α concentration"},
      {"measurement": "EC50", "setting": "[8]", "value": 0.25, "unit": "IU/ml"}
    ]}
  ]
}
